Data reported in ChEMBL document CHEMBL4732128, “Methylsulfanylpyridine based diheteroaryl isocombretastatin analogs as potent anti-proliferative agents” (Eur J Med Chem, 2021).
Converted amounts (≈) assume the structure as drawn.

What was measured:
HT-29 = experiment: Antiproliferative activity against human HT-29 cells assessed as inhibition of cell growth after 72 hrs by XTT assay; type: functional, cell-based; conditions: HT-29, 72 h
HL-60 = experiment: Antiproliferative activity against human HL-60 cells assessed as inhibition of cell growth after 72 hrs by XTT assay; type: functional, cell-based; conditions: HL-60, 72 h
[1] = Inhibition of bovine brain tubulin polymerization incubated for 30 mins by turbidimetric assay; type: tissue-based, Bos taurus
HeLa = experiment: Antiproliferative activity against human HeLa cells assessed as inhibition of cell growth after 72 hrs by XTT assay; type: functional, cell-based
[2] = Aqueous solubility of the compound in pH 7.0 phosphate buffer at 2 mg incubated for 72 hrs by shake flask method; type: physicochemical

Row | IC50 (HT-29) | IC50 (HL-60) | IC50 [1] | IC50 (HeLa) | solubility thermodynamic at 72 h [2] | Structure (SMILES)
1 | 549 nM | 222 nM | 1700 nM | 233 nM |  | CSc1cc(C(=O)c2ccc3c(ccn3C)c2)cc(SC)n1
2 | 276 nM | 223 nM | 2400 nM | 601 nM |  | C=C(c1cc(SC)nc(SC)c1)c1ccc2c(c1)c(C(N)=O)cn2C
3 | ≥ 10 nM | 490 nM | 2400 nM | 388 nM |  | CSc1cc(C(=O)c2ccc3c(ccn3C)c2)cc(Cl)n1
4 | ≥ 10 nM | ≥ 10 nM | > 5000 nM | ≥ 10 nM |  | CSc1cc(C(=O)c2ccc3c(c2)c(C=O)cn3C)cc(Cl)n1
5 | ≥ 10000 nM | ≥ 10000 nM | > 5000 nM | ≥ 10000 nM | 1.5 µg/mL (≈ 4.91 µM) | COc1ccc(C(=O)c2cc(SC)nc(SC)c2)cc1
6 | ≥ 10 nM | ≥ 10 nM | > 5000 nM | ≥ 10 nM |  | CSc1cc(C(O)c2ccc(N(C)C)cc2)cc(SC)n1 (stereo unspecified)
7 | ≥ 10 nM | ≥ 10 nM | > 5000 nM | ≥ 10 nM | 1.9 µg/mL (≈ 5.87 µM) | C=C(c1cc(SC)nc(SC)c1)c1ccc2ccccc2c1
8 | 745 nM | 240 nM | 1000 nM | 590 nM |  | CSc1cc(C(=NO)c2ccc3c(ccn3C)c2)cc(SC)n1
9 | 928 nM | 486 nM | 3800 nM | 328 nM | 6.9 µg/mL (≈ 21.8 µM) | C=C(c1ccc(N(C)C)cc1)c1cc(SC)nc(SC)c1
10 | ≥ 10000 nM | 613 nM | 4600 nM | 518 nM | 41.7 µg/mL (≈ 135 µM) | COc1ccc(C(=NO)c2cc(Cl)nc(SC)c2)cc1
11 | 514 nM |  | 4000 nM | 388 nM |  | COc1ccc(S(=O)(=O)Nc2cccnc2Nc2ccc(O)cc2)cc1 [ABT-751]
12 | ≥ 10 nM | ≥ 10 nM | > 5000 nM | ≥ 10 nM | 2.4 µg/mL (≈ 7.58 µM) | C=C(c1cccc(N(C)C)c1)c1cc(SC)nc(SC)c1
13 | ≥ 10 nM | ≥ 10 nM | > 5000 nM | ≥ 10 nM | 47.1 µg/mL (≈ 147 µM) | CSc1cc(C(=O)c2ccc(N(C)C)nc2)cc(SC)n1
14 | ≥ 10 nM | ≥ 10 nM | > 5000 nM | ≥ 10 nM | 230 µg/mL (≈ 646 µM) | CSc1cc(C(=O)c2ccc3c(c2)c(C=O)cn3C)cc(SC)n1
15 | ≥ 10 nM | ≥ 10 nM | 3800 nM | ≥ 10 nM |  | COc1ccc(/C=C\c2cc(SC)nc(SC)c2)cc1
16 | 550 nM | 306 nM | 2000 nM | 399 nM | 35.7 µg/mL (≈ 118 µM) | C=C(c1ccc(OC)cc1)c1cc(SC)nc(SC)c1
17 | 573 nM | 303 nM | 1200 nM | 64 nM | 7.6 µg/mL (≈ 21.4 µM) | C=C(c1cc(SC)nc(SC)c1)c1ccc2c(c1)c(C=O)cn2C
18 | ≥ 10 nM | ≥ 10 nM | > 5000 nM | ≥ 10 nM |  | CSc1cc(C(=NO)c2ccc3ccccc3c2)cc(SC)n1
19 | 781 nM | 213 nM | 2100 nM | 269 nM | 1.1 µg/mL (≈ 3.3 µM) | CSc1cc(C(=NO)c2ccc(N(C)C)cc2)cc(SC)n1

Row | IC50 (HT-29) | IC50 (HL-60) | IC50 [1] | IC50 (HeLa) | solubility thermodynamic at 72 h [2] | Structure (SMILES)
20 | ≥ 10 nM | ≥ 10000 nM | > 5000 nM | ≥ 10000 nM |  | CSc1cc(C(O)c2ccc3c(ccn3C)c2)cc(SC)n1 (stereo unspecified)
21 | 485 nM | 464 nM | 1500 nM | 628 nM | 48.9 µg/mL (≈ 168 µM) | C=C(c1ccc(OC)cc1)c1cc(Cl)nc(SC)c1
22 | ≥ 10000 nM | ≥ 10000 nM | > 5000 nM | ≥ 10000 nM |  | COc1ccc(C(C)c2cc(SC)nc(SC)c2)cc1 (stereo unspecified)
23 | ≥ 10 nM | ≥ 10 nM | > 5000 nM | ≥ 10 nM | 14.7 µg/mL (≈ 44.1 µM) | CSc1cc(C(=NO)c2cccc(N(C)C)c2)cc(SC)n1
24 | 38 nM | 44 nM | 2300 nM | 82 nM |  | C=C(c1cc(Cl)nc(SC)c1)c1ccc2c(c1)c(C(N)=O)cn2C
25 | ≥ 10 nM | ≥ 10 nM | 4700 nM | ≥ 10 nM | 103 µg/mL (≈ 277 µM) | C=C(c1cc(SC)nc(SC)c1)c1ccc2c(c1)c(C(=O)O)cn2C
26 | 292 nM | 299 nM | 3000 nM | 457 nM |  | COc1ccc(C(=NO)c2cc(SC)nc(SC)c2)cc1
27 | 511 nM | 416 nM | 300 nM | 176 nM | 12.3 µg/mL (≈ 39.1 µM) | C=C(c1cc(Cl)nc(SC)c1)c1ccc2c(ccn2C)c1
28 | 587 nM | 604 nM | 400 nM | 579 nM | 46.3 µg/mL (≈ 132 µM) | C=C(c1cc(SC)nc(SC)c1)c1ccc2c(c1)c(C#N)cn2C
29 | ≥ 10 nM | ≥ 10 nM | > 5000 nM | ≥ 10 nM |  | CSc1cc(C(O)c2ccc(N(C)C)nc2)cc(SC)n1 (stereo unspecified)
30 | 278 nM | 74 nM | 600 nM | 158 nM | 3.2 µg/mL (≈ 9.42 µM) | C=C(c1cc(Cl)nc(SC)c1)c1ccc2c(c1)c(C#N)cn2C
31 | 787 nM | 435 nM | > 5000 nM | 652 nM | 1 µg/mL (≈ 3.14 µM) | CSc1cc(C(=O)c2ccc(N(C)C)cc2)cc(SC)n1
32 | ≥ 10 nM | ≥ 10 nM | > 5000 nM | ≥ 10 nM |  | C=C(c1cc(Cl)nc(SC)c1)c1ccc2c(c1)c(C(=O)O)cn2C
33 | 633 nM | ≥ 10 nM | > 5000 nM | ≥ 10 nM |  | CSc1cc(/C=C\c2ccc3c(ccn3C)c2)cc(SC)n1
34 | 249 nM | 717 nM | 1100 nM | 520 nM |  | C=C(c1cc(SC)nc(SC)c1)c1ccc2c(ccn2C)c1
35 | ≥ 10 nM | 257 nM | > 5000 nM | 365 nM | 14.8 µg/mL (≈ 44.6 µM) | CSc1cc(C(=NO)c2ccc3c(ccn3C)c2)cc(Cl)n1
36 | ≥ 10 nM | ≥ 10 nM | > 5000 nM | ≥ 10 nM |  | CSc1cc(C(=O)c2ccc3ccccc3c2)cc(SC)n1
37 | ≥ 10 nM | ≥ 10 nM | > 5000 nM | ≥ 10 nM | 1.3 µg/mL (≈ 4.08 µM) | CSc1cc(C(=O)c2cccc(N(C)C)c2)cc(SC)n1
38 | ≥ 10000 nM | ≥ 10000 nM | > 5000 nM | ≥ 10000 nM |  | COc1ccc(C(=O)c2cc(Cl)nc(SC)c2)cc1

Row | Structure (SMILES) | IC50 (HT-29) | IC50 (HL-60) | IC50 [1] | IC50 (HeLa) | solubility thermodynamic at 72 h [2]
39 | COc1ccc(/C=C\c2cc(OC)c(OC)c(OC)c2)cc1O [COMBRETASTATIN A4] | 305 nM |  | 2800 nM |  | 
40 | CCOC(=O)C(O)(c1ccc(OC)cc1)c1cc(Cl)nc(SC)c1 (stereo unspecified) | ≥ 10 nM | ≥ 10 nM | > 5000 nM | ≥ 10 nM | 
